≈ marks a conversion by molar mass, not a printed value. Calls of active or inactive are those of the source. The rule behind the calls is not given here.

Data set [1] can be described thus: Inhibition of Rho/MRTF/SRF pathway (unknown origin) expressed in human PC3 cells assessed as reduction in Galpha12 Q231L-stimulated MRTF-selective SRE.L promoter-driven luciferase activity after overnight incubation by luminescence assay. The format is cell-based.
In another data set the test system is PC-3. Nature of the data set: Cytotoxicity against human PC3 cells assessed as reduction in cell viability up to 100 uM by WST-1 assay relative to control. The format is cell-based.
Data set [2] can be described thus: AUC in CD-1 mouse at 30 mg/kg, po by LC-MS/MS analysis. The format is ADME, organism-based. As to conditions: in vivo.
Data set [3] can be described thus: Clearance in CD-1 mouse at 15 mg/kg, iv by LC-MS/MS analysis. As to conditions: in vivo. The format is ADME, organism-based.
For data set [4], the species on record is Homo sapiens. Nature of the data set: Inhibition of Rho/MRTF/SRF pathway in human primary dermal fibroblasts assessed as reduction in LPA-stimulated CTGF mRNA expression preincubated for 72 hrs followed by LPA stimulation and measured after 1 hr by qPCR analysis. (In general: In qPCR the cycle at which signal appears reflects the starting amount.)
The species named for data set [5] is Homo sapiens. Nature of the data set: Inhibition of Rho/MRTF/SRF pathway in human primary dermal fibroblasts assessed as reduction in LPA-stimulated CTGF mRNA expression preincubated for 48 hrs followed by LPA stimulation and measured after 1 hr by qPCR analysis.
Data set [6] concerns Mus musculus. In words: Antifibrotic activity in bleomycin-induced mouse model of dermal fibrosis assessed as decrease in hydroxyproline content administered daily via oral gavage for 14 days measured post-last dose. The format is functional, organism-based.
Data set [7] is described as follows: Thermodynamic solubility of the compound. The format is physicochemical. As to conditions: read-out: Therm_solubility.
The nature of data set [8]: Oral bioavailability in CD-1 mouse at 30 mg/kg by LC-MS/MS analysis. The format is ADME, organism-based. As to conditions: in vivo.
A short description of data set [9]: Cmax in CD-1 mouse at 30 mg/kg, po by LC-MS/MS analysis. The format is ADME, organism-based. Also on record: dose 30 mg/kg, route oral. As to conditions: in vivo.
A short description of data set [10]: Half-life in CD-1 mouse at 15 mg/kg, iv by LC-MS/MS analysis. The format is ADME, organism-based. As to conditions: in vivo.
Data set [11] in a line: Half-life in CD-1 mouse at 30 mg/kg, po by LC-MS/MS analysis. As to conditions: in vivo. The format is ADME, organism-based.
Data set [12] deals with Mus musculus. Nature of the data set: Antifibrotic activity in bleomycin-induced mouse model of dermal fibrosis assessed as decrease in dermal thickness administered daily via oral gavage for 14 days measured post-last dose by Masson's trichrome-staining based microscopic method. The format is functional, organism-based.
Data set [13] in a line: Cmax in CD-1 mouse at 15 mg/kg, iv by LC-MS/MS analysis. Also on record: dose 15 mg/kg, route intravenous. As to conditions: in vivo. The format is ADME, organism-based.
Another data set concerns HEK-293T. In words: Cytotoxicity against HEK293T cells assessed as reduction in cell viability up to 100 uM by WST-1 assay relative to control. The format is cell-based. As to conditions: human. On the technique in general: Tetrazolium assays rely on reduction of a dye to a coloured formazan, in cell work by metabolically active cells.
The nature of data set [14]: AUC in CD-1 mouse at 15 mg/kg, iv by LC-MS/MS analysis. The format is ADME, organism-based. As to conditions: in vivo.
The nature of data set [15]: Half-life in CD-1 mouse liver microsomes at 1 uM in presence of NADPH by LC-MS/MS analysis. The format is ADME, Microsome. (Liver microsomes are a subcellular fraction often used to study metabolism.)
A short description of data set [16]: Inhibition of Rho/MRTF/SRF pathway (unknown origin) expressed in HEK293T cells assessed as reduction in Galpha12-stimulated MRTF-selective SRE.L promoter-driven luciferase activity after overnight incubation by luminescence assay. The format is cell-based, Homo sapiens.

By IC50 is commonly meant the point on the concentration scale where inhibition reaches its midpoint. As to `COc1ccc(-c2nnc(SCCC(=O)O)o2)cc1`, the IC50 in data set [1] turned out to be 160 nM. In addition, the Activity in the data set on PC-3 was less than 5%.

`O=C(O)CCSc1nc2ccccc2n1Cc1ccccc1`: the IC50 in data set [1] was greater than 100000 nM.

On to `O=C(O)CSc1nnc(-c2ccc(Cl)cc2Cl)o1`, for which the Activity in the data set with PC-3 is on record as less than 5%.

For `O=C(O)CCSc1nnc(-c2ccncc2)o1`, in data set [1], the IC50 is greater than 100000 nM.

As for `Cc1ccc(-c2nnc(SCCC(=O)O)o2)c(Cl)c1`, the IC50 in data set [1] was determined as 1.5 nM. Besides, the Activity with PC-3 is recorded as less than 5%.

For `Cc1ccccc1-c1nnc(SCCC(=O)O)o1`, the IC50 in data set [1] turned out to be 6300 nM. In the data set with PC-3, the Activity was less than 5%.

One may read the AUC as the area under the concentration-time curve, a measure of exposure. Read a low AUC as less exposure. The term clearance denotes a measure of how efficiently the substance is removed, as volume per time. A low value points to inefficient removal. By bioavailability is commonly meant the share of a dose that reaches the circulation, judged against a reference dose that is usually intravenous. Higher therefore signals good availability. For orientation: Cmax means the peak of the concentration-time curve. One may read the half-life as the time in which the quantity being followed falls by half. Take `O=C(O)CCSc1nnc(-c2ccc(Cl)cc2Cl)o1`: the AUC in data set [2] came to 63200 ng·h/mL; in data set [14] it was 47400 ng·h/mL. Also, in [3], the clearance stood at 5.3 mL/min/kg. The inhibition result in the data set filed under Homo sapiens [4] was “Dose-dependent effect”. In the data set listed under Homo sapiens [5], the inhibition result was “inactive”. Further, the Activity result in the data set on Mus musculus [6] was “Dose-dependent effect”; in the data set with PC-3, less than 5%; with Mus musculus [12] it was “Dose-dependent effect”; in the data set on HEK-293T, less than 5%. Further, the solubility thermodynamic in data set [7] worked out at 682 µM (≈ 218 µg/mL). The same compound displayed a bioavailability in data set [8] of 67%. The results for the IC50 in data set [1] and in data set [16] were 4 nM and 2 nM, respectively. In addition, the Cmax in data set [9] is 34 µg/mL; in data set [13], 88.5 µg/mL. Further, the t1/2 in [10] is 2 h; in data set [15] it was greater than 1 h. The compound further had a half-life in data set [11] of 2 h.

For the compound `O=C(O)CCCS(=O)(=O)c1nnc(-c2ccc(Cl)cc2Cl)o1`, in [16], the IC50 was greater than 100000 nM.

As to `O=C(O)CCCSc1nnc(-c2ccc(OC3CC3)cc2Cl)o1`, the Activity in the data set on HEK-293T is listed as less than 5%. The t1/2 in [15] is greater than 1 h. Also, in data set [16], the IC50 came to 1.3 nM.

As to `COc1ccc(-c2nnc(SCCC(=O)O)n2C)cc1`, the IC50 in data set [1] was greater than 100000 nM.

For `O=C(O)CCCSc1nnc(-c2cc(C3CC3)ccc2Cl)o1`, in the data set with HEK-293T, the Activity was less than 5%. The IC50 in data set [16] came to 20 nM.

With `CCOC(=O)CCSc1nnc(-c2ccc(Cl)cc2Cl)o1`, the IC50 in data set [1] amounted to 2.6 nM. Further, the Activity in the data set with PC-3 is less than 5%.

For the compound `Cc1ccc(-c2nnc(SCCC(=O)O)o2)c(Cl)c1C`, the Activity with HEK-293T is recorded as less than 5%. For the same compound, in data set [16], the IC50 was 0.02 nM.

With `CC(C)(F)c1ccc(-c2nnc(SCCCC(=O)O)o2)c(Cl)c1`, in the data set with HEK-293T, the Activity is reported as less than 5%. Besides, the IC50 in data set [16] is 0.5 nM.

On to `O=C(O)CCSc1nnc(-c2ccccc2)o1`, for which the IC50 in data set [1] was determined as 3500 nM. The Activity in the data set with PC-3 was less than 5%.

On to `COc1cccc(-c2nnc(SCCC(=O)O)o2)c1`, for which the IC50 in data set [1] was 3600 nM. In addition, the Activity in the data set on PC-3 is reported as less than 5%.

As for `O=C(O)CCSc1nnc(-c2ccc(Cl)cc2)o1`, the IC50 in [1] was 340 nM. Also, in the data set with PC-3, the Activity is reported as less than 5%.

For the compound `COc1ccc(-c2nnc(SCCC(=O)O)o2)c(Cl)c1`, the IC50 in data set [1] came out at 2.6 nM. Also, the Activity with PC-3 is given as less than 5%.

For `Cc1cccc(-c2nnc(SCCC(=O)O)o2)c1`, in data set [1], the IC50 was found to be 180 nM. The Activity with PC-3 is on record as less than 5%.

Turning to `O=C(O)CCCCSc1nnc(-c2ccc(Cl)cc2Cl)o1`, the Activity with PC-3 was less than 5%.

Regarding `O=C(O)CCSc1nnc(-c2cccnc2)o1`, the half-inhibitory concentration (IC50) in data set [1] worked out at 87000 nM.

As for `CC(C)c1ccc(-c2nnc(SCCCC(=O)O)o2)c(Cl)c1`, in the data set with HEK-293T, the Activity is less than 5%. In addition, the IC50 in data set [16] came out at 0.0007 nM.

For the compound `O=C(O)CCCSc1nnc(-c2ccccc2C(F)(F)F)o1`, the Activity with HEK-293T is less than 5%. The IC50 in data set [16] stood at 10000 nM.

In the case of `O=C(O)CCCSc1nnc(-c2cccc(C3CC3)c2Cl)o1`, the Activity in the data set on HEK-293T is given as less than 5%. In data set [16], the IC50 was 0.019 nM.

For `O=C(O)CCSc1nnc(-c2ccccc2Cl)o1`, in data set [1], the IC50 is 25 nM. For the same compound, the Activity in the data set with PC-3 is less than 5%.

For `Cc1occc1-c1nnc(SCCC(=O)O)o1`, in [1], the IC50 is greater than 100000 nM.

`O=C(O)CCSc1nc(-c2ccccc2)cc(=O)[nH]1`: the IC50 in data set [1] was greater than 100000 nM.

Take `CCc1ccc(-c2nnc(SCCCC(=O)O)o2)c(Cl)c1`: the Activity in the data set with HEK-293T is less than 5%. In addition, the IC50 in data set [16] worked out at 0.0007 nM.

For `c1ccc(-c2nnc(SCCC3OCCCO3)o2)cc1`, the IC50 in data set [1] was greater than 100000 nM.

Take `COc1ccc(-c2nnc(SCCCC(=O)O)o2)c(Cl)c1`: the Activity in the data set with HEK-293T was less than 5%. Moreover, the IC50 in data set [16] was found to be 2 nM.

Regarding `O=C(O)CCCSc1nnc(-c2ccc(C(F)(F)F)cc2Cl)o1`, the Activity in the data set with HEK-293T is less than 5%. In data set [15], the t1/2 is greater than 1 h. Besides, the IC50 in data set [16] worked out at 0.06 nM.

For the compound `CCCc1ccc(-c2nnc(SCCCC(=O)O)o2)c(Cl)c1`, in the data set with HEK-293T, the Activity was less than 5%. Further, in data set [16], the IC50 is less than 0.0001 nM.

For the compound `Cc1ccc(-c2nnc(SCCC(=O)O)o2)cc1`, in [1], the IC50 is 34 nM. In addition, the Activity in the data set with PC-3 is less than 5%.

On to `COc1ccccc1-c1nnc(SCCC(=O)O)o1`, for which the IC50 in data set [1] was found to be 3100 nM. Also, the Activity with PC-3 is less than 5%.

As to `O=C(O)CCCSc1nnc(-c2ccc(Br)cc2Cl)o1`, the Activity with HEK-293T is listed as less than 5%. Also, in [16], the IC50 came to 0.07 nM.

With `O=C(O)CCCSc1nnc(-c2ccc(OC3COC3)cc2Cl)o1`, the Activity with HEK-293T is on record as less than 5%. In addition, the IC50 in [16] stood at 370 nM.

In the case of `CNC(=O)CCSc1nnc(-c2ccc(Cl)cc2Cl)o1`, in the data set with PC-3, the Activity is recorded as less than 5%.

On to `O=C(O)CCCOc1nnc(-c2ccc(Cl)cc2Cl)o1`, for which the IC50 in data set [16] was greater than 100000 nM.

Consider `Cc1cc(Cl)c(-c2nnc(SCCC(=O)O)o2)cc1C`, for which the Activity with HEK-293T is listed as less than 5%. In [16], the IC50 was found to be 0.23 nM.

Take `O=C(O)CCSc1nnc(-c2cccc(Cl)c2)o1`: the IC50 in [1] turned out to be 1500 nM. For the same compound, in the data set on PC-3, the Activity was less than 5%.

On to `Cc1cc(-c2nnc(SCCC(=O)O)o2)c(Cl)cc1Cl`, for which the Activity in the data set with HEK-293T is on record as less than 5%. Besides, the IC50 in data set [16] came to 0.32 nM.

For `O=C(O)CCCSc1nnc(-c2ccc(C(F)(F)F)cc2)o1`, in the data set with HEK-293T, the Activity is less than 5%. For the same compound, the IC50 in data set [16] is 46 nM.

As for `O=C(O)CSCc1nnc(-c2ccc(Cl)cc2Cl)o1`, in [16], the IC50 came to 11500 nM.

`O=C(O)CCCSc1nnc(-c2ccc(-c3ccccc3)cc2Cl)o1`: the Activity in the data set with HEK-293T is on record as less than 5%. Moreover, the IC50 in [16] was determined as 25 nM.

For the compound `O=C(O)CCCc1nnc(-c2ccc(Cl)cc2Cl)o1`, the IC50 in [16] was greater than 100000 nM.

With `Cc1ccc(-c2nnc(SCCCC(=O)O)o2)c(Cl)c1`, the IC50 in data set [1] worked out at 0.1 nM. Besides, the Activity in the data set on PC-3 is recorded as less than 5%. In data set [15], the t1/2 was found to be 0.467 h.

For the origin of these results see ChEMBL document CHEMBL4385608, “5-Aryl-1,3,4-oxadiazol-2-ylthioalkanoic Acids: A Highly Potent New Class of Inhibitors of Rho/Myocardin-Related Transcription Factor (MRTF)/Serum Response Factor (SRF)-Mediated Gene Transcription as Potential Antifibrotic Agents for Scleroderma” (J Med Chem, 2019).
